According to patent EP1268431B1 (Wyeth, priority 2000, dated 2001):
“And” between values parts separate entries of the source, which are not always exact repeats. Equal entries are not always repeated.

Experiments:
Raf-1 (c-Raf) = target: T1, Raf-1 (c-Raf) (Homo sapiens, UniProt P04049); assay: Raf1 Kinase Cascade Assay; type: biochemical
T1 construct: Sf9 insect cell lysate containing full length 6his-tagged recombinant human c-Raf; 6his; host or cells: Sf9 insect cells (c-Raf, used as lysate); E. coli (GST-MEK1, GST-MAPK)
Procedure: (Specific Activity: -200U/ml). Human Non-active Mek-1-GST and human GST-MAP kinase (recombinant proteins produced in E. coli).
• Assay Dilution Buffer (ADB); 20mM MOPS, pH 7.2, 25mM β-glycerol phosphate, 5mM EGTA, 1mM sodium orthovanadate, 1mM dithiothreitol. • Magnesium/ATP Cocktail: 500µM cold ATP and 75 mM magnesium chloride in ADB. • Active Kinase: Human Active c-Raf: Use at 0.4U per assay point. • Non-active GST-MEK1: Use at 0.1 µg per assay point. • Non-active GST-p42 MAP Kinase: Use at 1.0 µg per assay point.
• TBST - Tris (50 mM, pH 7.5), NaCl (150 mM), Tween-20 (0.05 %) • Superblock (Pierce) • Anti-GST Ab (Pharmacia) • Anti-Phospho MAPK (Sigma) • Anti-Mouse Ab / Europium conjugate (Wallac)
IC50 determinations - done on compounds from single point assays with >80% inhibition. Typically Raf-1 assay is run at compound concentrations from 10 µM to 30 nM in half log dilutions. (% inhibition is determined for each compound concentration).

[1] = system: human adenocarcinoma cell line CaCo-2; assay: Cell Based Screen for Inhibitors of Raf Kinase, CaCo-2 cells; conditions: CaCo-2, four days, SRB
[2] = system: Human adenocarcinoma cell line LoVo; assay: Cell Based Screen for Inhibitors of Raf Kinase, LoVo cells; conditions: four days, SRB

Molecule	IC50 (Raf-1 (c-Raf))	IC50 [1] [nM]	IC50 [2] [nM]	IC50 ([1]; Homo sapiens, Caco-2, 96 h) [nM]	IC50 ([2]; Homo sapiens, 96 h) [nM]
4-{3-chloro-4-[(1-methyl-1H-imidazol-2-yl)sulfanyl]anilino}-7-[4-(1-piperidinylmethyl)phenyl]-3-quinolinecarbonitrile [Example 136]	2.5 nM and 1.8 nM	> 1000	11		
4-{3-chloro-4-[(1-methyl-1H-imidazol-2-yl)sulfanyl]anilino}-7-{5-[(4-ethyl-1-piperazinyl)methyl]-2-furyl}-3-quinolinecarbonitrile [Example 156]	9 nM and 12 nM	1000	5.6		
4-({3-chloro-4-[(1-methyl-1H-imidazol-2-yl)sulfanyl]phenyl}amino)-7-[6-(1-piperidinyl)-3-pyridinyl]-3-quinolinecarbonitrile [Example 211]	6 nM	> 1000	5.3		
COC(=O)C1CCN(Cc2ccc(-c3ccc4c(Nc5ccc(Sc6nccn6C)c(Cl)c5)c(C#N)cnc4c3)nc2)CC1 [Example 107, Methyl 1-{[6-(4-{3-chloro-4-[(1-methyl-1H-imidazol-2-yl)sulfanyl]anilino}-3-cyano-7-quinolinyl)-3-pyridinyl]methyl}-4-piperidinecarboxylate]				> 1000	25
COc1cc2c(Nc3ccc(Sc4nccn4C)c(Cl)c3)c(C#N)cnc2cc1-c1ccc(CN2CCOCC2)cc1 [Example 123, 4-{3-Chloro-4-[(1-methyl-1H-imidazol-2-yl)sulfanyl]anilino}-6-methoxy-7-[4-(4-morpholinylmethyl)phenyl]-3-quinolinecarbonitrile]				1500	40
4-({3-chloro-4-[(1-methyl-1H-imidazol-2-yl)sulfanyl]phenyl}amino) -7-[5-(1-pyridinyl]-3-quinolinecarbonitrile [Example 180]	3.7 nM	930	5.6		
N#Cc1cnc2cc(-c3ccc(CN4CCOCC4)c(CN4CCOCC4)c3)ccc2c1Nc1ccc(OCc2ccccc2)c(Cl)c1 [Example 132, 4-[4-(benzyloxy)-3-chloroanilino]-7-[3,4-bis(4-morpholinylmethyl)phenyl]-3-quinolinecarbonitrile]				7000	430
Cn1ccnc1Sc1ccc(Nc2c(C#N)cnc3cc(-c4csc(CN5CCOCC5)c4)ccc23)cc1Cl [Example 33, 4-{3-Chloro-4-[(1-methyl-1H-imidazol-2-yl)sulfanyl]anilino}-7-[5-(4-morpholinylmethyl)-3-thienyl]-3-quinolinecarbonitrite]	6 nM		6		
Cn1ccnc1Sc1ccc(Nc2c(C#N)cnc3cc(-c4ccc(CN5CCNCC5)cc4)ccc23)cc1Cl [Example 97, 4-({3-Chloro-4-[(1-methyl-1H-imidazol-2-yl)sulfanyl]phenyl}amino)-7-[4-(1-piperazinylmethyl)phenyl]-3-quinolinecarbonitrile]	16 nM	> 1000	33		
Cn1ccnc1Sc1ccc(Nc2c(C#N)cnc3cc(-c4ccc(CN5CCOCC5)cc4)ccc23)cc1Cl [Example 138]	5.6 nM	810	6.2		
Cn1ccnc1Sc1ccc(Nc2c(C#N)cnc3cc(-c4ccc(C(=O)N5CCOCC5)cc4)ccc23)cc1Cl [Example 129, 4-({3-Chloro-4-[(1-methyl-1H-imidazol-2-yl)sulfanyl]phenyl}amino)-7-[4-(4-morpholinylcarbonyl)phenyl]-3-quinolinecarbonitrile]				> 1000	42

Results, then the molecule that gave them:

IC50 (Raf-1 (c-Raf))	IC50 [1] [nM]	IC50 [2] [nM]	IC50 ([1]; Homo sapiens, Caco-2, 96 h) [nM]	IC50 ([2]; Homo sapiens, 96 h) [nM]	Molecule
20 nM					Cn1ccnc1Sc1ccc(Nc2c(C#N)cnc3cc(-c4ccc(CN5CCCCC5)o4)ccc23)cc1Cl [Example 155, 4-{3-chloro-4-[(1-methyl-1H-imidazol-2-yl)sulfanyl]anilino}-7-[5-(1-piperidinylmethyl)-2-furyl]-3-quinolinecarbonitrile]
1 nM	> 10000	30			Cn1ccnc1Sc1ccc(Nc2c(C#N)cnc3cc(-c4cnc(N5CCOCC5)nc4)ccc23)cc1Cl [Example 191, 4-{3-chloro-4-[(1-methyl-1H-imidazol-2-yl)sufanyl]anilino}-7-[2-(4-morpholinyl)-5-pyrimidinyl]-3-quinolinecarbonitrile]
50 nM					N#Cc1cnc2cc(-c3csc(CN4CCCCC4)c3)ccc2c1Nc1ccc(Sc2ccccc2)c(Cl)c1 [Example 462, 4-{[3-chloro-4-(phenylsulfanyl)phenyl]amino}-7-[5-(1-piperidinylmethyl)-3-thienyl]-3-quinolinecarbonitrile]
			> 1000	36	Cn1ccnc1Sc1ccc(Nc2c(C#N)cnc3cc(-c4ccc(CN5CCN(CCO)CC5)cn4)ccc23)cc1Cl [Example 217, 4-({3-chloro-4-[(1-methyl-1H-imidazol-2-yl)sulfanyl]phenyl}amino)-7-(5-{[4-(2-hydroxyethyl)-1-piperazinyl]methyl}-2-pyridinyl)-3-quinolinecarbonitrile]
			> 1000	5.6	Cn1ccnc1Sc1ccc(Nc2c(C#N)cnc3cc(-c4ccc(CN5CCN(CCO)CC5)s4)ccc23)cc1Cl [Example 161, 4-{3-chloro-4-[(1-methyl-1H-imidazol-2-yl)sulfanyl]anilino}-7-(5-{[4-(2-hydroxyethyl)-1-piperazinyl]methyl}-2-thienyl)-3-quinolinecarbonitrile]
			> 1000	7	CN(CCO)c1ccc(-c2ccc3c(Nc4ccc(Sc5nccn5C)c(Cl)c4)c(C#N)cnc3c2)cn1 [Example 216, 4-({3-chloro-4-[(1-methyl-1H-imidazol-2-yl)sulfanyl]phenyl}amino)-7-{6-[(2-hydroxyethyl)(methyl)amino]-3-pyridinyl}-3-quinolinecarbonitrile]
			590	3.2	Cn1ccnc1Sc1ccc(Nc2c(C#N)cnc3cc(-c4ccc(N5CCC(N6CCCC6)CC5)nc4)ccc23)cc1Cl [Example 210, 4-({3-chloro-4-[(1-methyl-1H-imidazol-2-yl)sulfanyl]phenyl}amino)-7-{6-[4-(1-pyrrolidinyl)-1-piperidinyl]-3-pyridinyl}-3-quinolinecarbonitrile]
			> 1000	6.5	CN1CCN(Cc2cccc(-c3ccc4c(Nc5ccc(Sc6nccn6C)c(Cl)c5)c(C#N)cnc4c3)n2)CC1 [Example 202, 4-{3-chloro-4-[(1-methyl-1H-imidazol-2-yl)sulfanyl]anilino}-7-{6-[(4-methyl-1-piperazinyl)methyl]-2-pyridinyl}-3-quinolinecarbonitrile]
